Among the test systems are NCI-H226 lung; SNB-19 CNS; NCI-H23 lung; SK-MEL-28 melanoma; TK-10 renal; PC-3 prostate; MALME-3M melanoma; HCC-2998 colon; HCT-116 colon; M19-MEL melanoma; DLD-1 colon.
Test in all cases: inhibition of tumour cell growth, NCI panel, 48 h

Structures are written as SMILES.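 Where inhibition never reached the appropriate level, the endpoint shown equals the highest concentration tested. Otherwise, values were interpolated linearly from a five-concentration, 48-hour dose response in 96-well plates. TGI: concentration producing complete growth inhibition.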

For `CCOC(=O)C1(C#N)C2(C#N)C(N)=NC(ON=C(C)C)(ON=C(C)C)C12C#N` (centres undefined), the TGI in the assay with NCI-H226 lung, in the assay on SNB-19 CNS, in the assay with NCI-H23 lung, with SK-MEL-28 melanoma, with TK-10 renal and with PC-3 prostate was greater than 100 µM each time. Besides, the TGI with MALME-3M melanoma, in the assay with HCC-2998 colon and in the assay with HCT-116 colon was greater than 100 µM in each case.
For the compound `CCCCC(=C=C(C)CO)C1CCCN1C(=O)OC(C)(C)C` (centres undefined), the TGI in the assay with NCI-H226 lung came out at 33.9 µM; in the assay on SNB-19 CNS, 60.2 µM; in the assay on NCI-H23 lung, 46.8 µM; in the assay with SK-MEL-28 melanoma it was 36 µM; in the assay on TK-10 renal it was 48.1 µM; in the assay with PC-3 prostate, 38.1 µM. Further, the values for the TGI in the assay on MALME-3M melanoma, in the assay on HCC-2998 colon and in the assay with HCT-116 colon were 28.2 µM, 20.3 µM and 29.5 µM, respectively.
`COC(=O)CCCC1(CCCC(=O)OC)CCCCCCCCC(CCCC(=O)OC)(CCCC(=O)OC)C(=O)C1=O`: the TGI was greater than 100 µM with NCI-H226 lung; greater than 100 µM with SNB-19 CNS; 47.9 µM in the assay on NCI-H23 lung; greater than 100 µM in the assay with SK-MEL-28 melanoma; greater than 100 µM with TK-10 renal; 53.5 µM with PC-3 prostate. For the same compound, the TGI in the assay with MALME-3M melanoma is 60.1 µM; in the assay with HCC-2998 colon, greater than 100 µM; in the assay with HCT-116 colon it was greater than 100 µM.
On to `CCCCCCCCCC(O)CC(=O)c1c(O)cccc1O` (centres undefined), for which the TGI with NCI-H226 lung was 34.9 µM; with SNB-19 CNS it was 73 µM; with NCI-H23 lung, 43.7 µM; in the assay with SK-MEL-28 melanoma it was greater than 100 µM; with TK-10 renal, 45.7 µM; with PC-3 prostate, 36.4 µM. Further, the TGI with MALME-3M melanoma amounted to 32.3 µM; in the assay on HCC-2998 colon, 26.8 µM; with HCT-116 colon, 56.7 µM.
Take `CSc1c2c(C)n[nH]c2nn1-c1ccccc1`: the TGI in the assay on NCI-H226 lung, in the assay on SNB-19 CNS, with NCI-H23 lung, in the assay with SK-MEL-28 melanoma, with TK-10 renal and in the assay on PC-3 prostate was greater than 100 µM throughout. For the same compound, the TGI in the assay on MALME-3M melanoma, in the assay with HCC-2998 colon and in the assay with HCT-116 colon was greater than 100 µM throughout.
For the compound `COC1=CC(=O)c2c(cc(COP(N)(=O)N(CCCl)CCCl)n2C)C1=O` (centres undefined), the TGI in the assay with NCI-H226 lung was 1.32 µM; with SNB-19 CNS, 14.2 µM; in the assay with NCI-H23 lung, 3.41 µM; with SK-MEL-28 melanoma it was 8.83 µM; in the assay on TK-10 renal, 5.61 µM; in the assay on PC-3 prostate it was 10.1 µM. Further, the TGI came out at 3.15 µM with MALME-3M melanoma, 2.3 µM with HCC-2998 colon and 0.707 µM with HCT-116 colon.
Consider `Cc1c(OCCCOc2ccc3c(=O)cc(-c4ccccc4)oc3c2C)ccc2c(=O)cc(-c3ccccc3)oc12`, for which the TGI with SNB-19 CNS, in the assay with M19-MEL melanoma, with NCI-H23 lung, with SK-MEL-28 melanoma, in the assay on TK-10 renal and in the assay on DLD-1 colon was greater than 100 µM each time. Moreover, the TGI with MALME-3M melanoma and with HCT-116 colon was greater than 100 µM in each case.
In the case of `CCNC(=O)NNc1ncnc2c1c(-c1ccc(Cl)cc1)cn2-c1ccc(C)cc1`, the TGI stood at 37.9 µM in the assay on NCI-H226 lung; 34.5 µM with SNB-19 CNS; 44.8 µM with NCI-H23 lung; 33.3 µM in the assay on SK-MEL-28 melanoma; 81 µM with TK-10 renal; 38.6 µM in the assay with PC-3 prostate. In addition, the TGI came to 35.5 µM in the assay with MALME-3M melanoma, 31.3 µM with HCC-2998 colon and 28.1 µM with HCT-116 colon.
`COc1cc(NS(C)(=O)=O)ccc1NCc1cnc2ccc3[nH]cccc3c12`: the TGI was 35.6 µM in the assay on NCI-H226 lung; greater than 89.1 µM in the assay with SNB-19 CNS; 55 µM in the assay with NCI-H23 lung; 60.9 µM with SK-MEL-28 melanoma; greater than 81.8 µM with TK-10 renal; 42.3 µM in the assay on PC-3 prostate. The values for the TGI in the assay with MALME-3M melanoma, in the assay with HCC-2998 colon and in the assay on HCT-116 colon were 43.4 µM, 35.4 µM and greater than 70 µM, respectively.
Consider `Cc1nc2ccccc2c(=O)n1NC(=O)c1ccccc1[N+](=O)[O-]`, for which the TGI with NCI-H226 lung, in the assay on SNB-19 CNS, in the assay with NCI-H23 lung, in the assay on SK-MEL-28 melanoma, in the assay on TK-10 renal and with PC-3 prostate was greater than 100 µM in each case. In addition, the TGI with MALME-3M melanoma, in the assay with HCC-2998 colon and in the assay on HCT-116 colon was greater than 100 µM throughout.
As to `O=C(OCC1CCCN2CCCCC12)c1cccnc1` (centres undefined), the TGI in the assay on NCI-H226 lung, with SNB-19 CNS, in the assay with NCI-H23 lung, with SK-MEL-28 melanoma, in the assay with TK-10 renal and in the assay with PC-3 prostate was greater than 100 µM each time. Further, the TGI in the assay on MALME-3M melanoma, in the assay with HCC-2998 colon and with HCT-116 colon was greater than 100 µM in each case.
As for `C/C(=N\NC(=O)CC#N)C(CN1CCCCC1)C(c1ccccc1)c1c(O)c2ccccc2oc1=O` (centres undefined), the TGI with NCI-H226 lung, in the assay on SNB-19 CNS, in the assay on NCI-H23 lung, with SK-MEL-28 melanoma, with TK-10 renal and in the assay on PC-3 prostate was greater than 100 µM each time. Besides, the TGI in the assay with MALME-3M melanoma, in the assay with HCC-2998 colon and in the assay on HCT-116 colon was greater than 100 µM each time.
`Nc1ncnc2c1ncn2C1OC(CO)C(O)C1NS(=O)(=O)c1ccccc1` (centres undefined): the TGI in the assay with NCI-H226 lung, in the assay on SNB-19 CNS, with NCI-H23 lung, in the assay on SK-MEL-28 melanoma, in the assay with TK-10 renal and in the assay with PC-3 prostate was greater than 100 µM in each case. In addition, the TGI in the assay on MALME-3M melanoma, with HCC-2998 colon and with HCT-116 colon was greater than 100 µM each time.
Regarding `CNC(=O)c1cc2nc3ccccc3c(=O)n2c2ccccc12`, the TGI in the assay on NCI-H226 lung, with SNB-19 CNS, in the assay on NCI-H23 lung, with SK-MEL-28 melanoma, with TK-10 renal and in the assay with PC-3 prostate was greater than 10 µM each time. The TGI with MALME-3M melanoma, with HCC-2998 colon and with HCT-116 colon was greater than 10 µM each time.
`C=CCOC(=O)c1c(C)n([O-])c2cc(Cl)c(Cl)cc2[n+]1=O`: the TGI was 38.9 µM in the assay on NCI-H226 lung; greater than 100 µM with SNB-19 CNS; 30.3 µM in the assay on NCI-H23 lung; 30.3 µM with SK-MEL-28 melanoma; 87.2 µM in the assay with TK-10 renal; greater than 100 µM with PC-3 prostate. Moreover, the TGI in the assay on MALME-3M melanoma worked out at 70.9 µM; with HCC-2998 colon it was 26.5 µM; in the assay on HCT-116 colon, 39 µM.

For the origin of these results see PubChem BioAssay (NCI).
